Source: patent publication US6713645B1, “Substituted tricyclics” (Eli Lilly and Company, priority 1996, dated 2004)

SMILES | melting point
COc1cc(OC(C)C(=O)O)c2c3c(C(N)=O)cccc3n(Cc3ccccc3)c2c1 (stereo not drawn) [Example 5, methyl [9-benzyl-4-carbamoyl-7-methoxycarbazol-5-yl]oxyacetic acid] | 170 to 172 °C
Cc1ccc(OCC(=O)O)c2c3c(C(N)=O)cccc3n(Cc3ccccc3)c12 [Example 50, [9-benzyl-5-carbamoyl-1-methylcarbazol-4-yl]oxyacetic acid] | 253 to 254 °C
NC(=O)c1cccc2c1c1c(OCC(=O)O)ccc(Cl)c1n2Cc1ccccc1 [Example 54, [9-benzyl-5-carbamoyl-1-chlorocarbazol-4-yl]oxyacetic acid] | 240 to 242 °C

Second part, the molecule after the results:

melting point | SMILES
251 to 254 °C | COc1cc(OCC(=O)[O-])c2c3c(n(Cc4ccccc4)c2c1)CCCC3C(N)=O.[Na+] (stereo not drawn)
189 to 190 °C | COc1cc(OC)c2c3c(n(Cc4ccccc4)c2c1)CCCC3C(=O)NN (stereo not drawn) [Example 1, 9-benzyl-5,7-dimethoxy-1,2,3,4-tetrahydrocarbazole-4-carboxylic acid hydrazide]
190 to 192 °C | COc1cc(OC)c2c3c(n(Cc4ccccc4)c2c1)CCCC3C(N)=O (stereo not drawn) [Example 2, 9-benzyl-5,7-dimethoxy-1,2,3,4-tetrahydrocarbazole-4-carboxamide]
